For data set [1], the system named is recombinant NL4-3 virus (nef section replaced with Renilla luciferase gene) in MT-2 cells. Nature of the data set: HIV cell culture assay (antiviral activity, luciferase readout in infected MT-2 cells). The settings on record: NL43. The class given is cell-based. The procedure:
HIV cell culture assay—MT-2 cells, 293T cells and the proviral DNA clone of NL4-3 virus were obtained from the NIH AIDS Research and Reference Reagent Program. MT-2 cells were propagated in RPMI 1640 media supplemented with 10% heat inactivated fetal bovine serum (FBS), […]. The 293T cells were propagated in DMEM media supplemented with 10% heat inactivated FBS, […]. A recombinant NL4-3 proviral clone, in which a section of the nef gene was replaced with the Renilla luciferase gene, was used to make the reference virus used in these studies. The recombinant virus was prepared through transfection of the recombinant NL4-3 proviral clone into 293T cells using Transit-293 Transfection Reagent from Minis Bio LLC (Madison, Wis.). Supernatent was harvested after 2-3 days and the amount of virus present was titered in MT-2 cells using luciferase enzyme activity as a marker by measuring luciferase enzyme activity. Luciferase was quantitated using the EnduRen Live Cell Substrate from Promega (Madison, Wis.). Antiviral activities of compounds toward the recombinant virus were quantified by measuring luciferase activity in MT-2 cells infected for 4-5 days with the recombinant virus in the presence of serial dilutions of the compound.
The 50% effective concentration (EC5o) was calculated by using the exponential form of the median effect equation where (Fa)=1/[1+(ED50/drug conc.)m] (Johnson Va., Byington R T. Infectivity Assay. In Techniques in HIV Research. ed. Aldovini A, Walker B D. 71-76. New York: Stockton Press.1990). The 50% inhibitory concentration (EC50) was calculated by using the exponential form of the median effect equation where percent inhibition=1/[1 +(EC50/drug concentration)m], where m is a parameter that reflects the slope of the concentration-response curve.

Data set [2] is described as follows: Compound cytotoxicity, XTT-based colorimetric assay. The class given is cell-based. The conditions noted are these: human; uninfected MT2 cells, day 4, XTT. The procedure:
Compound cytotoxicity and the corresponding CC50 values were determined using the same protocol as described in the antiviral assay except that uninfected cells were used. Cytotoxicity was assessed on day 4 in uninfected MT2 cells by using a XTT (2,3-bis[2-Methoxy-4-nitro-5-sulfophenyl]-2H-tetrazolium-5-carboxyanilide inner salt)-based colorimetric assay (Sigma-Aldrich, St Louis, Mo).

For `Cn1nc(NS(C)(=O)=O)c2c(Cl)ccc(-n3c([C@H](Cc4cc(F)cc(F)c4)NC(=O)Cn4nc(C(F)F)c5c4C(F)(F)[C@@H]4C[C@H]54)nc4cc(C5=CCOCC5)ccc4c3=O)c21` (atropisomer, axis not shown; (P)) [Example 9, N—((S)-1-((3P)-3-(4-chloro-1-methyl-3-(methylsulfonamido)-1H-indazol-7-yl)-7-(3,6-dihydro-2H-pyran-4-yl)-4-oxo-3,4-dihydroquinazolin-2-yl)-2-(3,5-difluorophenyl)ethyl)-2-((3bS,4aR)-3-(difluoromethyl)-5,5-difluoro-3b,4,4a,5-tetrahydro-1H-cyclopropa[3,4]cyclopenta[1,2-c]pyrazol-1-yl)acetamide], the EC50 in data set [1] came out at 0.064 nM. The 50% cytotoxic concentration (CC50) at 4 day in data set [2] was > 1000 nM.

In the case of `Cn1nc(NS(C)(=O)=O)c2c(Cl)ccc(-n3c([C@H](Cc4cc(F)cc(F)c4)NC(=O)Cn4nc(C(F)F)c5c4C(F)(F)[C@@H]4C[C@H]54)nc4cc(C(F)(F)C5CCC5)ccc4c3=O)c21` (atropisomer, axis not shown; (P)) [Example 25, N—((S)-1-((3P)-3-(4-chloro-1-methyl-3-(methylsulfonamido)-1H-indazol-7-yl)-7-(cyclobutyldifluoromethyl)-4-oxo-3,4-dihydroquinazolin-2-yl)-2-(3,5-difluorophenyl)ethyl)-2-((3bS,4aR)-3-(difluoromethyl)-5,5-difluoro-3b,4,4a,5-tetrahydro-1H-cyclopropa[3,4]cyclopenta[1,2-c]pyrazol-1-yl)acetamide], in data set [1], the EC50 is 0.75 nM. The cytotoxic concentration (CC50) at 4 day in data set [2] was > 500 nM.

In the case of `O=C(Cn1nc(C(F)F)c2c1C(F)(F)[C@@H]1C[C@H]21)N[C@@H](Cc1cc(F)cc(F)c1)c1nc2cc(C3CCOCC3)ccc2c(=O)n1-c1ccc(Cl)c2c(NS(=O)(=O)C3CC3)nn(CC(F)F)c12` (atropisomer, axis not shown; (P)) [Example 18], the EC50 in data set [1] turned out to be 0.084 nM. Besides, the half-maximal cytotoxic concentration (CC50) at 4 day in data set [2] is > 500 nM.

Take `Cn1nc(NS(C)(=O)=O)c2c(Cl)ccc(-n3c([C@H](Cc4cc(F)cc(F)c4)NC(=O)Cn4nc(C(F)F)c5c4C(F)(F)[C@@H]4C[C@H]54)nc4cc(Cc5ccccc5)ccc4c3=O)c21` (atropisomer, axis not shown; (P)) [Example 5, N—((S)-1-(7-benzyl-(3P)-3-(4-chloro-1-methyl-3-(methylsulfonamido)-1H-indazol-7-yl)-4-oxo-3,4-dihydroquinazolin-2-yl)-2-(3,5-difluorophenyl)ethyl)-2-((3bS,4aR)-3-(difluoromethyl)-5,5-difluoro-3b,4,4a,5-tetrahydro-1H-cyclopropa[3,4]cyclopenta[1,2-c]pyrazol-1-yl)acetamide]: the half-maximal effective concentration (EC50) in data set [1] was 0.221 nM. Besides, the CC50 at 4 day in data set [2] is > 1000 nM.

In the case of `CC(C)CCC(F)(F)c1ccc2c(=O)n(-c3ccc(Cl)c4c(NS(C)(=O)=O)nn(C)c34)c([C@H](Cc3cc(F)cc(F)c3)NC(=O)Cn3nc(C(F)F)c4c3C(F)(F)[C@@H]3C[C@H]43)nc2c1` (atropisomer, axis not shown; (P)) [Example 23, N—((S)-1-((3P)-3-(4-chloro-1-methyl-3-(methylsulfonamido)-1H-indazol-7-yl)-7-(1,1-difluoro-4-methylpentyl)-4-oxo-3,4-dihydroquinazolin-2-yl)-2-(3,5-difluorophenyl)ethyl)-2-((3bS,4aR)-3-(difluoromethyl)-5,5-difluoro-3b,4,4a,5-tetrahydro-1H-cyclopropa[3,4]cyclopenta[1,2-c]pyrazol-1-yl)acetamide], the EC50 in data set [1] stood at 4.4 nM.

Consider `O=C(Cn1nc(C(F)F)c2c1C(F)(F)[C@@H]1C[C@H]21)N[C@@H](Cc1cc(F)cc(F)c1)c1nc2cc(C3=CCOCC3)ccc2c(=O)n1-c1ccc(Cl)c2c(NS(=O)(=O)C3CC3)nn(CC(F)F)c12` [Example 16, N—((S)-1-((3P)-3-(4-chloro-3-(cyclopropanesulfonamido)-1-(2,2-difluoroethyl)-1H-indazol-7-yl)-7-(3,6-dihydro-2H-pyran-4-yl)-4-oxo-3,4-dihydroquinazolin-2-yl)-2-(3,5-difluorophenyl)ethyl)-2-((3bS,4aR)-3-(difluoromethyl)-5,5-difluoro-3b,4,4a,5-tetrahydro-1H-cyclopropa[3,4]cyclopenta[1,2-c]pyrazol-1-yl)acetamide], for which the EC50 in data set [1] worked out at 0.3 nM. The cytotoxic concentration (CC50) at 4 day in data set [2] is > 500 nM.

On to `Cn1nc(NS(C)(=O)=O)c2c(Cl)ccc(-n3c([C@H](Cc4cc(F)cc(F)c4)NC(=O)Cn4nc(C(F)F)c5c4C(F)(F)[C@@H]4C[C@H]54)nc4cc(C5=CCCCC5)ccc4c3=O)c21` (atropisomer, axis not shown; (P)) [Example 6, N—((S)-1-((3P)-3-(4-chloro-1-methyl-3-(methylsulfonamido)-1H-indazol-7-yl)-7-(cyclohex-1-en-1-yl)-4-oxo-3,4-dihydroquinazolin-2-yl)-2-(3,5-difluorophenyl)ethyl)-2-((3bS,4aR)-3-(difluoromethyl)-5,5-difluoro-3b,4,4a,5-tetrahydro-1H-cyclopropa[3,4]cyclopenta[1,2-c]pyrazol-1-yl)acetamide], for which the half-maximal effective concentration (EC50) in data set [1] is 1.32 nM. Also, the CC50 at 4 day in data set [2] was > 1000 nM.

As for `C[C@@H]1CC(c2ccc3c(=O)n(-c4ccc(Cl)c5c(NS(=O)(=O)C6CC6)nn(CC(F)F)c45)c([C@H](Cc4cc(F)cc(F)c4)NC(=O)Cn4nc(C(F)F)c5c4C(F)(F)[C@@H]4C[C@H]54)nc3c2)=C[C@H](C)O1` (atropisomer, axis not shown; (P)) [Example 21, N—((S)-1-((3P)-3-(4-chloro-3-(cyclopropanesulfonamido)-1-(2,2-difluoroethyl)-1H-indazol-7-yl)-7-((2R,6S)-2,6-dimethyl-3,6-dihydro-2H-pyran-4-yl)-4-oxo-3,4-dihydroquinazolin-2-yl)-2-(3,5-difluorophenyl)ethyl)-2-((3bS,4aR)-3-(difluoromethyl)-5,5-difluoro-3b,4,4a,5-tetrahydro-1H-cyclopropa[3,4]cyclopenta[1,2-c]pyrazol-1-yl)acetamide], the EC50 in data set [1] was determined as 0.14 nM. Further, the CC50 at 4 day in data set [2] was > 500 nM.

Consider `Cn1nc(NS(C)(=O)=O)c2c(Cl)ccc(-n3c([C@H](Cc4cc(F)cc(F)c4)NC(=O)Cn4nc(C(F)F)c5c4C(F)(F)[C@@H]4C[C@H]54)nc4cc(C5=CCCC5)ccc4c3=O)c21` (atropisomer, axis not shown; (P)) [Example 8, N—((S)-1-((3P)-3-(4-chloro-1-methyl-3-(methylsulfonamido)-1H-indazol-7-yl)-7-(cyclopent-1-en-1-yl)-4-oxo-3,4-dihydroquinazolin-2-yl)-2-(3,5-difluorophenyl)ethyl)-2-((3bS,4aR)-3-(difluoromethyl)-5,5-difluoro-3b,4,4a,5-tetrahydro-1H-cyclopropa[3,4]cyclopenta[1,2-c]pyrazol-1-yl)acetamide], for which the half-maximal effective concentration (EC50) in data set [1] was found to be 0.392 nM. Also, the half-maximal cytotoxic concentration (CC50) at 4 day in data set [2] was > 1000 nM.

In the case of `COC(C)(C)CCc1ccc2c(=O)n(-c3ccc(Cl)c4c(NS(C)(=O)=O)nn(C)c34)c([C@H](Cc3cc(F)cc(F)c3)NC(=O)Cn3nc(C(F)F)c4c3C(F)(F)[C@@H]3C[C@H]43)nc2c1` (atropisomer, axis not shown; (P)) [Example 24, N—((S)-1-((3P)-3-(4-chloro-1-methyl-3-(methylsulfonamido)-1H-indazol-7-yl)-7-(3-methoxy-3-methylbutyl)-4-oxo-3,4-dihydroquinazolin-2-yl)-2-(3,5-difluorophenyl)ethyl)-2-((3bS,4aR)-3-(difluoromethyl)-5,5-difluoro-3b,4,4a,5-tetrahydro-1H-cyclopropa[3,4]cyclopenta[1,2-c]pyrazol-1-yl)acetamide], in data set [1], the EC50 amounted to 0.039 nM. In addition, the 50% cytotoxic concentration (CC50) at 4 day in data set [2] is > 500 nM.

As for `C[C@@H]1CC(c2ccc3c(=O)n(-c4ccc(Cl)c5c(NS(C)(=O)=O)nn(C)c45)c([C@H](Cc4cc(F)cc(F)c4)NC(=O)Cn4nc(C(F)F)c5c4C(F)(F)[C@@H]4C[C@H]54)nc3c2)=C[C@H](C)O1` (atropisomer, axis not shown; (P)) [Example 19, N—((S)-1-((3P)-3-(4-chloro-1-methyl-3-(methylsulfonamido)-1H-indazol-7-yl)-7-((2R,6S)-2,6-dimethyl-3,6-dihydro-2H-pyran-4-yl)-4-oxo-3,4-dihydroquinazolin-2-yl)-2-(3,5-difluorophenyl)ethyl)-2-((3bS,4aR)-3-(difluoromethyl)-5,5-difluoro-3b,4,4a,5-tetrahydro-1H-cyclopropa[3,4]cyclopenta[1,2-c]pyrazol-1-yl)acetamide], the concentration giving a half-maximal response (EC50) in data set [1] is 0.08 nM. In data set [2], the CC50 at 4 day is > 500 nM.

For orientation: EC50 means the midpoint of the concentration-response curve. The term CC50 denotes the concentration that lowers cell viability or growth by half. Low values mean greater toxicity to the cells, high ones lower toxicity to the cells.

(Values after patent US20210393633A1, “INHIBITORS OF HUMAN IMMUNODEFICIENCY VIRUS REPLICATION” (ViiV HEALTHCARE UK (NO.5) LIMITED, priority 2018, published 2021).)
